According to paper PMC3026800, “Mechanism of Inhibition of Enveloped Virus Membrane Fusion by the Antiviral Drug Arbidol” (PLoS ONE, 2011):

System: HApp (pseudoparticles harbouring the influenza hemagglutinin)
Assay type: cell-based
Settings: 11.3 µM arbidol

CCOC(=O)c1c(CSc2ccccc2)n(C)c2cc(Br)c(O)c(CN(C)C)c12.Cl [Arb, 1H-indole-3-carboxylic acid, 6-bromo-4-[(dimethylamino)-methyl]-5-hydroxy-1-methyl-2-[(phenylthio)methyl]-, ethyl ester, monohydrochloride]
Sensitivity of pseudoparticle entry to arbidol: sensitive
